Measured values from ChEMBL document CHEMBL1909551, “Design, synthesis and in vitro evaluation of bridgehead fluoromethyl analogs of N-{2-[4-(2-methoxyphenyl)piperazin-1-yl]ethyl}-N-(pyridin-2-yl)cyclohexanecarboxamide (WAY-100635) for the 5-HT(1A) receptor” (Eur J Med Chem, 2011).
Each block holds one compound with its values, some of them ahead of it.

Key:
Hepatocyte [1] = settings: human, hepatocytes, 2.5 h
Description: Metabolic stability in human hepatocytes assessed as compound remaining at 50 MBq after 150 mins by radioactivity-based HPLC analysis

[2] = target: T1, Alpha-1A adrenergic receptor (Homo sapiens, UniProt P35348)
T1 sequence (P35348 whole entry): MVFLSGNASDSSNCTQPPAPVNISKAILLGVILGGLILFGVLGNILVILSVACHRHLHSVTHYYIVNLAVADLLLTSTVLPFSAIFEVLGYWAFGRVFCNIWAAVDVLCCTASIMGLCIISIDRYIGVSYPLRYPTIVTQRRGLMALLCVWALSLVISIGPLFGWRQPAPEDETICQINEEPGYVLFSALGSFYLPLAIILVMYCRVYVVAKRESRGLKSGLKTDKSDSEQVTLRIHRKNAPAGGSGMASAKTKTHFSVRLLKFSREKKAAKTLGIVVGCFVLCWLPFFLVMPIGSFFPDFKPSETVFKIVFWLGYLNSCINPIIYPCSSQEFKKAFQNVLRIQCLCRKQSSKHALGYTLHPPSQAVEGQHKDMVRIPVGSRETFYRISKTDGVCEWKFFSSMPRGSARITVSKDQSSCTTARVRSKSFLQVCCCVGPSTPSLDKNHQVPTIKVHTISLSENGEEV
Description: Binding affinity to alpha1A receptor

[3] = target: T2, 5-hydroxytryptamine receptor 1A (Homo sapiens, UniProt P08908); test: biochemical
T2 sequence (P08908 whole entry): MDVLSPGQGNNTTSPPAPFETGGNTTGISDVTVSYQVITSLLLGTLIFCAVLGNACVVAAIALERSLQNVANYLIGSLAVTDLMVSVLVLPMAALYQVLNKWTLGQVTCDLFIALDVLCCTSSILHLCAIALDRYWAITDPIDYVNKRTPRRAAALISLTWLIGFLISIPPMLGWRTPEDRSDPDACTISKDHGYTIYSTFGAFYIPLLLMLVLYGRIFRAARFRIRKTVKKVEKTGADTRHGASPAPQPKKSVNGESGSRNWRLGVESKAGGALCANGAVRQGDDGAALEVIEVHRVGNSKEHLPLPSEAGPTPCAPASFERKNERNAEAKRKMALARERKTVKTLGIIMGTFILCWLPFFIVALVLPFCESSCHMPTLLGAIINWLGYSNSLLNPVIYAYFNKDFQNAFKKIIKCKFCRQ
Description: Displacement of [3H]8-OH-DPAT from 5HT1A receptor expressed in HEK293 EBNA cells by radioligand binding assay

[4] = target: T3, Alpha-1B adrenergic receptor (Homo sapiens, UniProt P35368); test: biochemical
T3 sequence (P35368 whole entry): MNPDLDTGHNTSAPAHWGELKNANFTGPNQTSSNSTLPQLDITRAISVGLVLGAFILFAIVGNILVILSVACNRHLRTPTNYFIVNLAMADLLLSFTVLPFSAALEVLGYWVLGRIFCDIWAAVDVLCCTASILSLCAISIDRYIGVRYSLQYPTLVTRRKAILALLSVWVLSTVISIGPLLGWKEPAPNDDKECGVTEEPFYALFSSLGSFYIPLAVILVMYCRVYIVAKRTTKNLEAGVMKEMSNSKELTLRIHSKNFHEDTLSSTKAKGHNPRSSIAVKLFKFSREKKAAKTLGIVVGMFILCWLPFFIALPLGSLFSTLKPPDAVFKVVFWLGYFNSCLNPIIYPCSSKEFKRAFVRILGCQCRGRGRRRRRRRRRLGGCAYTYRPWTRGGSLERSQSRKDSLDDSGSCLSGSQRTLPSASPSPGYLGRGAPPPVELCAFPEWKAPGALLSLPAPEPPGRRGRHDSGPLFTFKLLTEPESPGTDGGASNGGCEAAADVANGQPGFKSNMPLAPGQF
Description: Displacement of [3H]prazosin from Alpha-1B receptor expressed in HEK293 EBNA cells by radioligand binding assay

[5] = target: T4, Alpha-1D adrenergic receptor (Homo sapiens, UniProt P25100); test: biochemical
T4 sequence (P25100 whole entry): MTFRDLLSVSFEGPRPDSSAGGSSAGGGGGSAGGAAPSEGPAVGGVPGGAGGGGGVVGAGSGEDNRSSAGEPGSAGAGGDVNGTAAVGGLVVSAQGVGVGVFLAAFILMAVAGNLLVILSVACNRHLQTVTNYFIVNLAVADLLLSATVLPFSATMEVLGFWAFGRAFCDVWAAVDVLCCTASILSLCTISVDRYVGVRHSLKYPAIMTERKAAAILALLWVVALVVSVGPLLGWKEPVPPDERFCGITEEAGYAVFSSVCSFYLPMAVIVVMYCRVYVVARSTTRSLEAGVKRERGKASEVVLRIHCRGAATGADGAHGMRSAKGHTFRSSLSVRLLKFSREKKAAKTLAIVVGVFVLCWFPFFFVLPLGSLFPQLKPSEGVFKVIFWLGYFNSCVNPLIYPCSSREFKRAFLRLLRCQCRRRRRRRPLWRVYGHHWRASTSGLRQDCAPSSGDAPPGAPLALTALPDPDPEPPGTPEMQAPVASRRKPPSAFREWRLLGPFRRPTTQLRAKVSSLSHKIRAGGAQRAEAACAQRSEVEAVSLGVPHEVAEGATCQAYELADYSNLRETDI
Description: Displacement of [3H]prazosin from Alpha-1D receptor expressed in HEK293 EBNA cells by radioligand binding assay

D(4) dopamine receptor = target: T5, D(4) dopamine receptor (Homo sapiens, UniProt P21917); test: biochemical
T5 sequence (P21917 whole entry): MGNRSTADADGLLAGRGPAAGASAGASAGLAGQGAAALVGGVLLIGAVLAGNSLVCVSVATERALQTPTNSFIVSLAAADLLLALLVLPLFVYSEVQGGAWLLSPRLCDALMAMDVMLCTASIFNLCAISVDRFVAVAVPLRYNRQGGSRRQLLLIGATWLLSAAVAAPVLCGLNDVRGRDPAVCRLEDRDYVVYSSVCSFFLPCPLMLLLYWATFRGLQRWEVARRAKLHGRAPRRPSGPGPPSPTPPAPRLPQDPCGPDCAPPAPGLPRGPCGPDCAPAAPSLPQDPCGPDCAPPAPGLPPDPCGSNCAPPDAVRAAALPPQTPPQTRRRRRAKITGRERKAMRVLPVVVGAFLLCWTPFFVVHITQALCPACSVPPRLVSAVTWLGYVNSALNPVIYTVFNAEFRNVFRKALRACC
Description: Displacement of [3H]N-methylspiperone from dopamine D4 receptor expressed in HEK293 EBNA cells by radioligand binding assay

[6] = target: 5-hydroxytryptamine receptor 2B (Homo sapiens, UniProt P41595); test: biochemical
Description: Displacement of [3H]LSD from 5HT2B receptor expressed in HEK293 EBNA cells by radioligand binding assay

[7] = target: T1, Alpha-1A adrenergic receptor; test: biochemical
Description: Displacement of [3H]prazosin from alpha1A receptor expressed in HEK293 EBNA cells by radioligand binding assay

[8] = target: 5-hydroxytryptamine receptor 7 (Homo sapiens, UniProt P34969); test: biochemical
Description: Displacement of [3H]LSD from 5HT7 receptor expressed in HEK293 EBNA cells by radioligand binding assay

[9] = target: 5-hydroxytryptamine receptor 1D (Homo sapiens, UniProt P28221); test: biochemical
Description: Displacement of [3H]GR127543 from 5HT1D receptor expressed in HEK293 EBNA cells by radioligand binding assay

physchem = settings: buffer, pH 7.4
[10] = target: T2, 5-hydroxytryptamine receptor 1A; test: biochemical; remark: listed apart in the source
Description: Displacement of [3H]8-OH-DPAT from human 5HT1A receptor expressed in HEK293 EBNA cells after 2 hrs by liquid scintillation counting

Hepatocyte [11] = settings: human, hepatocytes, 1 h
Description: Metabolic stability in human hepatocytes assessed as compound remaining at 50 MBq after 60 mins by radioactivity-based HPLC analysis

Hepatocyte [12] = settings: human, hepatocytes, 0.25 h
Description: Metabolic stability in human hepatocytes assessed as compound remaining at 50 MBq after 15 mins by radioactivity-based HPLC analysis

Sequence of 5-hydroxytryptamine receptor 1D (P28221 whole entry): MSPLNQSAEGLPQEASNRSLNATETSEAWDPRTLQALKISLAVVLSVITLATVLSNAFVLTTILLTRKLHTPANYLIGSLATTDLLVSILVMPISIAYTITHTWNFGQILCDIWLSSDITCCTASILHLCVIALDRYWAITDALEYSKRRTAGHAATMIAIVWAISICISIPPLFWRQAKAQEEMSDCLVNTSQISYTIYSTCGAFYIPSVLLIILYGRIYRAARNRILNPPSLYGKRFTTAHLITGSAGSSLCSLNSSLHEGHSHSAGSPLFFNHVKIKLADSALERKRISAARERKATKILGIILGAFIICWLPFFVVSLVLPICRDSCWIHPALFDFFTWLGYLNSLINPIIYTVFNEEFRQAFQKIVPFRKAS
Sequence of 5-hydroxytryptamine receptor 7 (P34969 whole entry): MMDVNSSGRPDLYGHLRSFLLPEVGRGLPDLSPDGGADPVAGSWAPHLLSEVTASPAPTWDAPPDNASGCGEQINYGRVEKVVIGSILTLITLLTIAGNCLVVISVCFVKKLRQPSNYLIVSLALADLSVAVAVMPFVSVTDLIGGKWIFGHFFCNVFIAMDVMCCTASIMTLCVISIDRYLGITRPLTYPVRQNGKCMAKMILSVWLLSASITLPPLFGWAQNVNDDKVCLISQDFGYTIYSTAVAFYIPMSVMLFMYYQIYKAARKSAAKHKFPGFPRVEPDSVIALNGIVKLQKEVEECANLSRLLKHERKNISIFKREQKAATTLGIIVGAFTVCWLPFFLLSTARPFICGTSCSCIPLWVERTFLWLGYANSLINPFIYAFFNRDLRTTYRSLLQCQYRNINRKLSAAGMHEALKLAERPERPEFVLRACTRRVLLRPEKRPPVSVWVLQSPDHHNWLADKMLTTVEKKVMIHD
Sequence of 5-hydroxytryptamine receptor 2B (P41595 whole entry): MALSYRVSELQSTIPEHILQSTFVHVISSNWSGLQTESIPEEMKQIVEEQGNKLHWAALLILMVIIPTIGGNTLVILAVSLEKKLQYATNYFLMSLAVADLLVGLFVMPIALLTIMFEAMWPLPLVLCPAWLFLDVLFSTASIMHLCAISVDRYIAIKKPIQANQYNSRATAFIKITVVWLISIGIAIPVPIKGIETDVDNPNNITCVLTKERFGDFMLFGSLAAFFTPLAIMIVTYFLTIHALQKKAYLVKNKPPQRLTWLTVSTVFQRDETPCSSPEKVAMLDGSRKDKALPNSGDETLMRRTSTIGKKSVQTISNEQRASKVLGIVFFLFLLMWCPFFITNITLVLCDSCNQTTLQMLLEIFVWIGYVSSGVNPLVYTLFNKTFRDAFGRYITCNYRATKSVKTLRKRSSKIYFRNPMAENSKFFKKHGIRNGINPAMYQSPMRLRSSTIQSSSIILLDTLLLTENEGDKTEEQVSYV

Stability (Hepatocyte [1]): 8.4%
Ki [2]: 151 nM
SMILES: COc1ccccc1N1CCN(CCN(C(=O)c2ccc([18F])cc2)c2ccccn2)CC1

Ki [2]: 13.2 nM
SMILES: COc1ccccc1N1CCN(CCN(C(=O)c2ccc([18F])c(C)c2)c2ccccn2)CC1

Ki [3]: 1.1 nM
Ki [4]: 110 nM
Ki [5]: 73 nM
Ki (D(4) dopamine receptor): 84 nM
Ki [6]: 79 nM
Ki [7]: 74 nM
Ki [8]: 77 nM
Ki [9]: 361 nM
logD (physchem): 3.37
IC50 [10]: 1.53 nM
Ki [10]: 0.65 nM
SMILES: COc1ccccc1N1CCN(CCN(C(=O)C23CCC(CF)(CC2)CC3)c2ccccn2)CC1

IC50 [10]: 1.74 nM
Ki [10]: 0.74 nM
SMILES: O=C(N(CCN1CCN(c2ccccc2O)CC1)c1ccccn1)C12CCC(CF)(CC1)C2

Ki [3]: 0.2 nM
Ki [4]: 176 nM
Ki [5]: 27 nM
Ki (D(4) dopamine receptor): 71 nM
Ki [6]: 99 nM
Ki [7]: 16 nM
Ki [8]: 132 nM
Ki [9]: 122 nM
logD (physchem): 2.94
IC50 [10]: 1.27 nM
Ki [10]: 0.54 nM
SMILES: COc1ccccc1N1CCN(CCN(C(=O)C23C4C5C2C2C3C4C52CF)c2ccccn2)CC1 (centres undefined)

Stability (Hepatocyte [1]): 17.4%
Stability (Hepatocyte [11]): 30.7%
Stability (Hepatocyte [12]): 73.2%
SMILES: COc1ccccc1N1CCN(CCN(C(=O)C23C4C5C2C2C3C4C52C[18F])c2ccccn2)CC1 (centres undefined)

Ki [3]: 0.9 nM
Ki [4]: 38 nM
Ki [5]: 19 nM
Ki (D(4) dopamine receptor): 92 nM
Ki [6]: 88 nM
Ki [7]: 36 nM
Ki [8]: 97 nM
Ki [9]: 92 nM
logD (physchem): 2.7
IC50 [10]: 2.02 nM
Ki [10]: 0.86 nM
SMILES: COc1ccccc1N1CCN(CCN(C(=O)C23CCC(CF)(CC2)C3)c2ccccn2)CC1

IC50 [10]: 4.27 nM
Ki [10]: 1.82 nM
SMILES: COc1ccccc1N1CCN(CCN(C(=O)C23CC4CC(CC(CF)(C4)C2)C3)c2ccccn2)CC1

IC50 [10]: 2.59 nM
Ki [10]: 1.1 nM
SMILES: O=C(N(CCN1CCN(c2ccccc2O)CC1)c1ccccn1)C12CC3CC(CC(CF)(C3)C1)C2

IC50 [10]: 1.35 nM
Ki [10]: 0.58 nM
SMILES: O=C(N(CCN1CCN(c2ccccc2O)CC1)c1ccccn1)C12C3C4C1C1C2C3C41CF (centres undefined)

IC50 [10]: 1.76 nM
Ki [10]: 0.75 nM
SMILES: O=C(N(CCN1CCN(c2ccccc2O)CC1)c1ccccn1)C12CCC(CF)(CC1)CC2
